Measurements published in patent US20240315992A1, “AMINOXY ACID-BASED ANTIBACTERIAL COMPOUNDS AND METHODS THEREOF” (The University of Hong Kong, priority 2023, published 2024).

Key:
[1] = system: Staphylococcus aureus ATCC29213 Δatl, ΔSAOUHSC_02855 and ΔSAOUHSC_01895; test: Bactericidal activity in autolysin deletion mutants; format: cell-based; details: 4×MIC (12.5 μM), 24 hours, compared to wild type
Method: FIG. 15 is the bar graph showing the reduction of bactericidal effect of compound 8 in autolysin deletion mutants of Staphylococcus aureus. Staphylococcus aureus ATCC29213 WT, Staphylococcus aureus ATCC 29213, Δatl, ΔSAOUHSC_02855 and ΔSAOUHSC_01895 was incubated with 4×MIC compounds 8 for 24 hours. 10 μL bacteria were serial diluted and spotted on Mueller Hinton Agar. Colonies were enumerated next day. Data represented the mean±S.D. of biological triplicates. Statistical analysis was performed by unpaired t test compared to wild type in 95% confidence interval (*p<0.05; **p<0.01).
Target DNA upstream 1 kb and downstream 1 kb were PCR amplified from Staphylococcus aureus genomic DNA. The two DNA inserts were ligated to fuse upstream and downstream DNA fragments by overlap PCR. The ligated PCR product was cloned to pKOR1 plasmid using Vazyme ClonExpress®II One Step Cloning Kit, and transformed into Escherichia. coli top 10, plated on LBA containing ampicillin (100 μg/mL), and incubated under 30° C. overnight. Colony PCR was performed with Sanger sequencing for selection of transformants. The plasmid DNA was extracted and subsequently transformed into Staphylococcus aureus RN4220 and ATCC 29213 in TSA containing chloramphenicol (10 μg/mL). […]

[2] = system: Staphylococcus aureus ATCC 29213 cytoplasm pH; test: Cytoplasmic pH measurement with pHluorin; format: cell-based; details: pHluorin fluorescence ratio, 5 minutes incubation
Method: Cytoplasm pH was monitored by pH sensitive fluorescent protein over time (s). 2 μM nigericin (Nig) and 2 μM valinomycin (Val) were used as positive control and 1% DMSO was used as negative control. Data represented the mean±S.D. of biological triplicates. Statistical analysis was performed by one-way ANOVA with Dunnett's post-test to calculate p-values adjusted for multiple comparisons with DMSO negative control (*p<0.05; **p<0.01; ***p<0.001).
To construct pHluorinsarA plasmid, pGLsarA plasmid vector was PCR amplified using primers pGL-f (CTGCAGGCATGCAAG; SEQ ID NO: 1) and pGL-r ([…]: SEQ ID NO: 2). […]
A pHlourin standard curve correlating pH and fluorescence ratio was constructed. Briefly, the emission at 510 nm was monitored with excitation wavelengths at 410 nm and 470 nm simultaneously following previously described protocol^18 Overnight culture Staphylococcus aureus ATCC 29213 was sub-cultured 1:100 in fresh CAMH medium and regrown to exponential phase. […] Fluorescence ratio (Excitation wavelength 410 nm/470 nm; emission wavelength 510 nm) was then measured in 1 mL cuvette using Hitachi F-4500 Florescence Spectrometer and plotted against the pH of the buffer. […]

SMILES: CC(C)C[C@H](ONC(=O)[C@@H](COCc1ccccc1)ONC(=O)c1cc(C(F)(F)F)cc(C(F)(F)F)c1)C(=O)Nc1ccccc1 [Compound 8]
- bactericidal activity in autolysin deficient Staphylococcus aureus [1]: diminished bactericidal activity
- cytoplasm pH [2]: can acidify Staphylococcus aureus cytoplasm
